Results from ChEMBL document CHEMBL3045921, “Synthesis and Acaricidal Activity of Pyrazole-5-carboxamide Derivatives” (1991).

Legend:
Type in all cases: functional
Settings in all cases: 120 h
Tetranychus urticae [1] = assay: Acaricidal activity against Tetranychus urticae (two-spotted spider mite) in kidney bean leaf assessed as mortality at 500 ppm at 25 degC measured after 5 days
Tetranychus urticae [2] = assay: Acaricidal activity against Tetranychus urticae (two-spotted spider mite) in kidney bean leaf assessed as mortality at 200 ppm at 25 degC measured after 5 days
Tetranychus urticae [3] = assay: Acaricidal activity against Tetranychus urticae (two-spotted spider mite) in kidney bean leaf assessed as mortality at 50 ppm at 25 degC measured after 5 days
Tetranychus urticae [4] = assay: Acaricidal activity against Tetranychus urticae (two-spotted spider mite) in kidney bean leaf assessed as mortality at 3.1 ppm at 25 degC measured after 5 days
Tetranychus urticae [5] = assay: Acaricidal activity against Tetranychus urticae (two-spotted spider mite) in kidney bean leaf assessed as mortality at 12.5 ppm at 25 degC measured after 5 days

Compound | mortality at 500 ppm (Tetranychus urticae [1]) | mortality at 200 ppm (Tetranychus urticae [2]) | mortality at 50 ppm (Tetranychus urticae [3]) | mortality at 3.1 ppm (Tetranychus urticae [4]) | mortality at 12.5 ppm (Tetranychus urticae [5])
Cc1nn(C(F)F)c(C(=O)NCc2ccc(C(C)(C)C)cc2)c1Cl | 0% | 0% | 0% | – | –
CC(C)c1nn(C)c(C(=O)NCc2ccc(C(C)(C)C)cc2)c1Cl | 100% | 100% | 100% | 0% | 30%
CCc1nn(C)c(C(=O)NCc2ccc(N)cc2)c1Cl | 0% | 0% | 0% | – | –
CCCCc1nn(C)c(C(=O)NCc2ccc(C(C)(C)C)cc2)c1Cl | 0% | 0% | 0% | 0% | 0%
Cc1n[nH]c(C(=O)NCc2ccc(C(C)(C)C)cc2)c1Cl | 0% | 0% | 0% | – | –
CCc1nn(C)c(C(=O)NCc2ccc(C#N)cc2)c1Cl | 0% | 0% | 0% | – | –
CCc1nn(C)c(C(=O)NCc2ccc([S+](C)[O-])cc2)c1Cl (configuration not stated) | 0% | 0% | 0% | – | –
CCc1nn(C)c(C(=O)NCc2ccc(C(C)CC)cc2)c1Cl (configuration not stated) | 100% | 100% | 100% | 0% | 0%
Cc1nn(C)c(C(=O)NCc2ccc(C(C)(C)C)cc2)c1OC(F)F | 100% | 0% | 0% | 0% | 0%
CCCCCc1ccc(CNC(=O)c2c(Cl)c(CC)nn2C)cc1 | 100% | 100% | 100% | 30% | 80%
CCc1nn(C)c(C(=O)NCc2ccc(S(C)(=O)=O)cc2)c1Cl | 0% | 0% | 0% | – | –
Cc1nn(C)c(C(=O)OCc2ccc(C(C)(C)C)cc2)c1Br | 0% | 0% | 0% | – | –
Cc1nn(C)c(C(=O)NCc2cccc(C(F)(F)F)c2)c1Cl | 0% | 0% | 0% | – | –
Cc1nn(C)c(C(=O)NC(c2ccccc2)C(C)C)c1Cl (configuration not stated) | 0% | 0% | 0% | – | –
CCc1nn(C)c(C(=O)NCc2ccc(OC(F)F)cc2)c1Cl | 80% | 30% | 0% | – | –
CCc1nn(C)c(C(=O)NCc2ccc(OC)cc2)c1Cl | 0% | 0% | 0% | – | –
Cc1nn(C)c(C(=O)NC(c2ccccc2)c2ccccc2)c1Br | 0% | 0% | 0% | – | –
CCOCCOc1ccc(CNC(=O)c2c(Cl)c(CC)nn2C)cc1 | 80% | 30% | 0% | – | –
Cc1nn(C)c(C(=O)NC(C)(C)C)c1Br | 0% | 0% | 0% | – | –
Cc1nn(Cc2ccccc2)c(C(=O)NCc2ccc(C(C)(C)C)cc2)c1Cl | 0% | 0% | 0% | – | –
CCOc1ccc(CNC(=O)c2c(Cl)c(CC)nn2C)cc1 | 0% | 0% | 0% | – | –
CCc1nn(C)c(C(=O)NCc2ccc(SC)cc2)c1Cl | 100% | 80% | 0% | – | –
CCc1nn(C)c(C(=O)NCc2ccc(Br)cc2)c1Cl | 0% | 0% | 0% | – | –
CCc1nn(C)c(C(=O)NCc2ccc(C(F)(F)F)cc2)c1Cl | 100% | 80% | 30% | – | –
Cc1nn(C(C)C)c(C(=O)NCc2ccc(C(C)(C)C)cc2)c1Cl | 0% | 0% | 0% | – | –
Cc1nn(-c2ccccc2)c(C(=O)NCc2ccc(C(C)(C)C)cc2)c1Cl | 0% | 0% | 0% | – | –
Cc1nn(C)c(C(=O)NCc2ccccc2)c1Br | 0% | 0% | 0% | – | –
CCOCc1ccc(CNC(=O)c2c(Cl)c(CC)nn2C)cc1 | 100% | 80% | 0% | – | –
Cc1nn(C)c(C(=O)NC(C)c2ccccc2)c1Br (configuration not stated) | 0% | 0% | 0% | – | –
